Experimental data from article PMC7324353 (European Journal of Medicinal Chemistry, 2020).
“Also recorded” adds a separate entry of the source.

Columns and labels:
[1] = system: male CD1 mice; conditions: 600 mg/kg, n = 20 mice per group
[2] = system: HepaRG; conditions: HepaRG, 50, 100, 1000 and 5000 μM, 6 h, 12 h, 24 h
[3] = system: primary human hepatocytes (PHH); assay: Reduced glutathione; format: cell-based; conditions: 500 or 1000 μM, 3 h, 6 h, 12 h
[4] = system: CD1 male mice; assay: Liver histology and immunohistochemistry; format: in vivo, mouse; conditions: for H&E-stained liver sections / apoptotic nuclei (TUNEL) / hepatic tight junctions (ZO-1 staining): 600 mg/kg; for H&E-stained liver sections: CD1 mice
[5] = system: primary human hepatocytes (PHH); assay: LDH release in primary human hepatocytes; conditions: 500 or 1000 μM, 3 h, 6 h, 12 h, in comparison to ApAP
[6] = system: male Sprague-Dawley rats; assay: Von Frey; format: in vivo, rat; conditions: baseline dropped to about 20 after CFA
[7] = biological target: CYP3A4 (Homo sapiens, UniProt P08684); conditions: titration curves for 2D6 and 3A4; isozyme not given
[8] = system: CD1 mice; assay: NAPQI detection in serum by LC-MS/MS; format: in vivo, mouse; conditions: 600 mg/kg, ip or po
[9] = biological target: CYP2D6 (Homo sapiens, UniProt P10635); assay: Vivid CYP450 screening assay, CYP2D6; format: biochemical
[10] = system: CD1 male mice; assay: In vivo liver function tests and serum creatinine; parameters: species or system mouse; conditions: 600 mg/kg; for liver function tests (ALT, AST, ALP) in serum: serum after 12 h
[11] = system: male CD1 mice; assay: Baker's yeast-induced hyperthermia; format: in vivo, mouse; conditions: 80 mg/kg po, n = 10, 2 h after drug (6-h time point)
[12] = cited from earlier work

CYP3A4, sequence (P08684 whole entry): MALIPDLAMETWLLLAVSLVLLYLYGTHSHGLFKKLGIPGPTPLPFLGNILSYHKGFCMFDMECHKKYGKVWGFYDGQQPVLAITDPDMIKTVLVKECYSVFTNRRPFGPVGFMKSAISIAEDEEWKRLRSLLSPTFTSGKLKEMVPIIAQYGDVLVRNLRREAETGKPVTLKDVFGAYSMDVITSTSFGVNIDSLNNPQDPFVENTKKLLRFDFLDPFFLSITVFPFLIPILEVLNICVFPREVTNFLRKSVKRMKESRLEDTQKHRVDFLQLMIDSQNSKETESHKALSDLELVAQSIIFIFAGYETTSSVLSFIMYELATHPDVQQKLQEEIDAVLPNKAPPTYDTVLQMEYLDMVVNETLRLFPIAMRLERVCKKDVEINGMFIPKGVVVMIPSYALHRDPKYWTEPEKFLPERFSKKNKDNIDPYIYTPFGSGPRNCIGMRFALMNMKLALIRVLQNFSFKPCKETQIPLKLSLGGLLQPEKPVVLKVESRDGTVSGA
CYP2D6, sequence (P10635 whole entry): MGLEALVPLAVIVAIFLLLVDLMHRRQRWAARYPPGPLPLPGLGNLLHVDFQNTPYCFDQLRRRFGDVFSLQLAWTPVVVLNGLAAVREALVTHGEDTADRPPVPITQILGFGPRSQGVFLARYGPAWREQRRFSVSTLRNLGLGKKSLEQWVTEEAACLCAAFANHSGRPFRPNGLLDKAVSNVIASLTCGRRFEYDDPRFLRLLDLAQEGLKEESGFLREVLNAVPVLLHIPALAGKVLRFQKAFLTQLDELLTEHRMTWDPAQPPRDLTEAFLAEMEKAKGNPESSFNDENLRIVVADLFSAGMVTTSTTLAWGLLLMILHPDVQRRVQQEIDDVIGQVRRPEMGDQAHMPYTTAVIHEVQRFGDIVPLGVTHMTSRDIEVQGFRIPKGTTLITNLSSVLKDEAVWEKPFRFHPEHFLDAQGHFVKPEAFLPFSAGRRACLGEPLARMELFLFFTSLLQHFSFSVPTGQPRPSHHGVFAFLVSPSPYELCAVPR

Compound	mice alive after 48 h [1] [mice]	hepatotoxicity (LDH release, reduced GSH), dose and time-dependent effect [2]	amount of reduced GSH [3]	H&E-stained liver sections [4]	apoptotic nuclei (TUNEL) ([4]; mice)	hepatic tight junctions (ZO-1 staining) ([4]; mice)	LDH release [5]	latency for withdrawal of the CFA-injected left hind foot [6]	concentrations at which inhibition is noted [7] [nM]	NAPQI generation in serum [8]	inhibitory effects on CYP2D6 [9]	liver function tests (ALT, AST, ALP) in serum [10]	antipyretic effect [11]	nitrotyrosine in liver (marker of mitochondrial free radical formation) ([4]; toxic dose, mice)	serum creatinine (renal function) [10]	hepatotoxicity ([12]; compared with ApAP)	in vivo analgesic profile ([12]; compared with ApAP)	in vivo metabolism ([12]; into the main metabolite 2)	antipyresis ([12]; stated in abstract, no reference given)
O=C(CNS(=O)(=O)c1ccccc1C(=O)NCCc1ccc(O)c(O)c1)Nc1ccc(O)cc1 [3r, N-[2-(3,4-dihydroxyphenil)ethyl]-2-[[2-(4-hydroxyanilino)-2-oxo-ethyl]sulfamoyl] benzamide]	20	lack of hepatotoxicity	consistently increased	healthy liver architecture was maintained	but not in 3b and 3r	preserved	consistently decreased	increased	> 1000	did not result in the formation of NAPQI	only marginal inhibitory effects	marked reduction in LFTs							
CC(=O)Nc1ccc(O)cc1 [ApAP, N-Acetyl-4-aminophenol, reference compound]				centrilobular hepatic hemorrhagic necrosis	A large number of apoptotic nuclei	Loss of hepatic tight junctions		increased		detected NAPQI generation		Increased levels; also recorded: significantly high	effectively reduced fever	large amounts of nitrotyrosine	moderately elevated; also recorded: significantly high				
O=C(CN1C(=O)c2ccccc2S1(=O)=O)Nc1ccc(O)cc1 [compound 1, N-(4-hydroxyphenyl)-2-(1,1,3-trioxo-1,2-benzothiazol-2-yl)acetamide]																considerably decreased	maintained the in vivo analgesic profile of ApAP	quickly metabolized in vivo	not antipyretic
CNC(=O)c1ccccc1S(=O)(=O)NCC(=O)Nc1ccc(O)cc1 [3b, 2-[[2-(4-Hydroxyanilino)-2-oxo-ethyl]sulfamoyl]-N-methylbenzamide]	20	lack of hepatotoxicity	consistently increased	healthy liver architecture was maintained	but not in 3b and 3r	preserved	consistently decreased	increased		did not result in the formation of NAPQI		marked reduction in LFTs							
